Source: patent EP4232018B1 (priority 2020, dated 2022)
Entries after “also recorded” stand apart in the source; their conditions may differ.

Assays:
SARS-CoV-2 = format: cell-based
[1] = tested on: African swine fever virus; format: cell-based

Compound | inhibition of the SARS-CoV-2 reporter gene (SARS-CoV-2) | inhibiting African swine fever virus [1] | viral multiplication (rosetta) [1] | effect on cell viability (A549 NSCLC cells)
Cc1ccc(C(C)C)cc1OC(=O)C[N+](C)(C)CCCCCCCCCC[N+](C)(C)CC(=O)Oc1cc(C(C)C)ccc1C.[Cl-].[Cl-] [Compound IV, N1,N10-bis(2-(5-isopropyl-2-methylphenoxy)-2-oxoethyl)-N1,N1,N10,N10-tetramethyldecane-1,10-diaminium dichloride] | inhibits the SARS-CoV-2 reporter gene in a dose dependent manner | effective at inhibiting African swine fever virus | Cells grew well and were protected from African swine fever virus infection. No rosetta were observed; also recorded: Cells grew well, but protection against ASFV infection decreased and some rosetta became visible | does not affect cell viability
Cc1ccc(C(C)C)c(OC(=O)C[N+](C)(C)CCCCCCCCCC[N+](C)(C)CC(=O)Oc2cc(C)ccc2C(C)C)c1.[Cl-].[Cl-] [Compound V, N1,N10-bis(2-(2-isopropyl-5-methylphenoxy)-2-oxoethyl)-N1,N1,N10,N10-tetramethyldecane-1,10-diaminium dichloride] |  | effective at inhibiting African swine fever virus | Cells grew well and were protected from African swine fever virus infection. No rosetta were observed; also recorded: Cells grew well, but protection against ASFV infection decreased and some rosetta became visible | 
